This note sets out measurements from publication PMC4051630, “A Comparison of Protein Kinases Inhibitor Screening Methods Using Both Enzymatic Activity and Binding Affinity Determination” (PLoS ONE, 2014).

Holding throughout (assay): Differential Scanning Fluorimetry (DSF) Tm shift
Common to all, as to type: binding
In general terms: In DSF a fluorescence change marks the thermal transition of the protein.

The target in assay [1] is T1, PAK4 Catalytic Domain+PBD (Homo sapiens, UniProt O96013).
T1 construct: for 8, we also made a longer version containing one or more additional domains; His-tag; made in house; host or cells: Escherichia coli
T1 sequence (O96013 whole entry, the tested form may be a part): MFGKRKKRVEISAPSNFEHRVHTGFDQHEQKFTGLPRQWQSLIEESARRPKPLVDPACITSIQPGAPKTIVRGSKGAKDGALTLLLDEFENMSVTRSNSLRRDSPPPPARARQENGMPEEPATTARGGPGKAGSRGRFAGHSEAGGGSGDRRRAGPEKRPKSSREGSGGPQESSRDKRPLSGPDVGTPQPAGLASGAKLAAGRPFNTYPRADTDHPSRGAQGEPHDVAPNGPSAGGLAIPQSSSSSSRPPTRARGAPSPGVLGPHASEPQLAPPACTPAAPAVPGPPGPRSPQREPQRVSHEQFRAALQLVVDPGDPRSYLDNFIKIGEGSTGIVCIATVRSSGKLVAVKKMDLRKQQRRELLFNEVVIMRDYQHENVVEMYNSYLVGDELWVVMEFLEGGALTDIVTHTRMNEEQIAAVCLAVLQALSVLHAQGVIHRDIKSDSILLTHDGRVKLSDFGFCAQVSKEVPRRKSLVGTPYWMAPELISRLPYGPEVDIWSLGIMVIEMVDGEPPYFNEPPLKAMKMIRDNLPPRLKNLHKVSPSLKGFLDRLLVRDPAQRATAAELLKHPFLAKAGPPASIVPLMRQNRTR
Particulars: 2 µM protein, 10 µM inhibitor, average of 3 experiments, each in duplicate.

Another assay addresses T2, FES Catalytic Domain (Homo sapiens, UniProt P07332).
T2 construct: For all of them, we expressed and purified the catalytic domain separately; His-tag; made in house; host or cells: Escherichia coli
Conditions: 2 µM protein, 10 µM inhibitor, average of 3 experiments, each in duplicate.

The next assay addresses T3, PAK7 Catalytic Domain (Homo sapiens, UniProt Q9P286).
T3 construct: For all of them, we expressed and purified the catalytic domain separately; His-tag; made in house; host or cells: Escherichia coli
Particulars: 2 µM protein, 10 µM inhibitor, average of 3 experiments, each in duplicate.

For the next assay, the target named is T4, CDK2 + Cyclin A (Homo sapiens, UniProt P24941).
T4 construct: CDK2 (P24941); 1–299; His-tag; made in house; host or cells: Escherichia coli
Particulars: CDK2 + Cyclin A; 2 µM protein, 10 µM inhibitor; average of 3 experiments, each in duplicate.

The next assay concerns the target SRC Catalytic Domain (Homo sapiens, UniProt P12931). More on the design: For all of them, we expressed and purified the catalytic domain separately; His-tag; made in house; host or cells: Escherichia coli. Particulars: 2 µM protein, 10 µM inhibitor, average of 3 experiments, each in duplicate.
Assay [2] has as its target T5, STK3 Catalytic domain+SARAH (Homo sapiens, UniProt Q13188).
T5 construct: for 8, we also made a longer version containing one or more additional domains; His-tag; made in house; host or cells: Escherichia coli
T5 sequence (Q13188 1-491): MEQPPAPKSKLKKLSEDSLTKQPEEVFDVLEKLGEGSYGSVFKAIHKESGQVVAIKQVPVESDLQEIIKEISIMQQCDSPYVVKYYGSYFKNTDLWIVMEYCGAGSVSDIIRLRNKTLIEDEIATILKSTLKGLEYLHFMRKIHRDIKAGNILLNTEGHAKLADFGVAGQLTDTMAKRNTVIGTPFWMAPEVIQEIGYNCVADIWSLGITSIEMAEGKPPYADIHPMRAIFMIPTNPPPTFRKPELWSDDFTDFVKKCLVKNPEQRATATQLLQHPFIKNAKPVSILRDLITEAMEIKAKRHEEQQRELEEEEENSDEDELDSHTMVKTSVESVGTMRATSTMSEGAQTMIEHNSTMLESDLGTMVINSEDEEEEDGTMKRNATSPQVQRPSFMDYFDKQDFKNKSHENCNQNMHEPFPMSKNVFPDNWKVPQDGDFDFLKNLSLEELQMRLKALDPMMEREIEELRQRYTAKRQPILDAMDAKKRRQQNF
Particulars: 2 µM protein, 10 µM inhibitor, average of 3 experiments, each in duplicate.

Another assay addresses T6, AKT3 Catalytic Domain (Homo sapiens, UniProt Q9Y243).
T6 construct: AKT3 (Q9Y243); CD; His-tag; made in house; host or cells: Escherichia coli
Conditions: 2 µM protein, 10 µM inhibitor, average of 3 experiments, each in duplicate.

A further assay addresses T7, CHK2 Catalytic Domain (Homo sapiens, UniProt O96017).
T7 construct: For all of them, we expressed and purified the catalytic domain separately; His-tag; made in house; host or cells: Escherichia coli
Particulars: 2 µM protein, 10 µM inhibitor, average of 3 experiments, each in duplicate.

Assay [3] deals with SRC Catalytic Domain+SH2+SH3 (Homo sapiens, UniProt P12931). Particulars: 2 µM protein, 10 µM inhibitor, average of 3 experiments, each in duplicate.
SRC Catalytic Domain+SH2+SH3, sequence (P12931 84-523 limits assumed): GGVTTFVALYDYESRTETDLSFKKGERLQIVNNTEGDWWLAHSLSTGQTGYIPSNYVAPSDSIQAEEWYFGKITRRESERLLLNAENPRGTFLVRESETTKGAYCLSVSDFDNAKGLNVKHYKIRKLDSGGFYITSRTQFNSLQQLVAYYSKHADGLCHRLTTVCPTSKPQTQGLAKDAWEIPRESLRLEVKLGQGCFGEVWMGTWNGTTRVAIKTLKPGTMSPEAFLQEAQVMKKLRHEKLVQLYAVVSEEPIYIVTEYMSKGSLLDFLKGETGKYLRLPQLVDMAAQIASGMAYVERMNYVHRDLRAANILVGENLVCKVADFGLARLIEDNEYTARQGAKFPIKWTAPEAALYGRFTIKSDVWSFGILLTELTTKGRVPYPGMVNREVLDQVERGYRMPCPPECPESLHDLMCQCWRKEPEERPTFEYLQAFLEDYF
The next assay addresses T8, PAK4 Catalytic Domain (Homo sapiens, UniProt O96013).
T8 construct: For all of them, we expressed and purified the catalytic domain separately; His-tag; made in house; host or cells: Escherichia coli
Particulars: 2 µM protein, 10 µM inhibitor, average of 3 experiments, each in duplicate.

The target of the next assay is T9, FAK2 Catalytic Domain (Homo sapiens, UniProt Q14289).
T9 construct: For all of them, we expressed and purified the catalytic domain separately; His-tag; made in house; host or cells: Escherichia coli
T9 sequence (Q14289 425-683 limits assumed): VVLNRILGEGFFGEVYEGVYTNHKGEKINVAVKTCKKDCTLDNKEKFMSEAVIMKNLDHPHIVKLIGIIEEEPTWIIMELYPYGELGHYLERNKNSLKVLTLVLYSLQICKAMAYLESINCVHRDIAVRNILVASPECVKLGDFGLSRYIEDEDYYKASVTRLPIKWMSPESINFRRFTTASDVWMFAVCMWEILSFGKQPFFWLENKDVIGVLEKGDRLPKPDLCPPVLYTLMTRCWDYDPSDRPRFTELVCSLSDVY
Conditions: 2 µM protein, 10 µM inhibitor, average of 3 experiments, each in duplicate.

Another assay concerns the target T10, STK3 Catalytic Domain (Homo sapiens, UniProt Q13188).
T10 construct: For all of them, we expressed and purified the catalytic domain separately; His-tag; made in house; host or cells: Escherichia coli
T10 sequence (Q13188 27-278 limits assumed): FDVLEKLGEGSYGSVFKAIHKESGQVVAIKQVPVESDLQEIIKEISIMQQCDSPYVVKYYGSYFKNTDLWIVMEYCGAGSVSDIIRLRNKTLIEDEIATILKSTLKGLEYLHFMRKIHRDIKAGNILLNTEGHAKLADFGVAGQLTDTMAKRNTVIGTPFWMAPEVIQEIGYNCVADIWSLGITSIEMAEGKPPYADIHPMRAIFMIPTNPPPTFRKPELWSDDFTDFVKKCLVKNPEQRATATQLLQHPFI
Conditions: 2 µM protein, 10 µM inhibitor, average of 3 experiments, each in duplicate.

The target in the next assay is T11, DMPK Catalytic Domain (Homo sapiens, UniProt Q09013).
T11 construct: For all of them, we expressed and purified the catalytic domain separately; His-tag; made in house; host or cells: Escherichia coli
T11 sequence (Q09013 71-339 limits assumed): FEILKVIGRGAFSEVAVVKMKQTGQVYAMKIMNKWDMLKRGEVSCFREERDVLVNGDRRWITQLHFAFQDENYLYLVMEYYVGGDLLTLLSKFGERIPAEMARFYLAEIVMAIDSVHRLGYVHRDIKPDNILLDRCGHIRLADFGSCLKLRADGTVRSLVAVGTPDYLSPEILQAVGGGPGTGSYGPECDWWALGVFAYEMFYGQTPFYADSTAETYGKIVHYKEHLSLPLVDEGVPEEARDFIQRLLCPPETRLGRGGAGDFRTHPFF
Particulars: 2 µM protein, 10 µM inhibitor, average of 3 experiments, each in duplicate.

A further assay deals with T12, FES Catalytic Domain+SH2 (Homo sapiens, UniProt P07332).
T12 construct: for 8, we also made a longer version containing one or more additional domains; His-tag; made in house; host or cells: Escherichia coli
T12 sequence (P07332 448-822 limits assumed): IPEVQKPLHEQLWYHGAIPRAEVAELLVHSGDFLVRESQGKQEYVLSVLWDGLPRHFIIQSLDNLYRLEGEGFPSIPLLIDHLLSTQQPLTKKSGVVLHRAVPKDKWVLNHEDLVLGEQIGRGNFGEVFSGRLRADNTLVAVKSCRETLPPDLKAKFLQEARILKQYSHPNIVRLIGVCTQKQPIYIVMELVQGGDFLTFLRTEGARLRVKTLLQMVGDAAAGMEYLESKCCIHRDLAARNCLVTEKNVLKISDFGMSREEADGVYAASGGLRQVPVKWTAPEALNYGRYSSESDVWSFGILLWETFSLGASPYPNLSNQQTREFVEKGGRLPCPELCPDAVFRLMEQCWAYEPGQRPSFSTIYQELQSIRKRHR
Conditions: 2 µM protein, 10 µM inhibitor, average of 3 experiments, each in duplicate.

For the next assay, the target named is T13, CDK2 + Cyclin E (Homo sapiens, UniProt P24941).
T13 construct: CDK2 (P24941); 1–299; His-tag; made in house; host or cells: Escherichia coli
Conditions: CDK2 + Cyclin E; 2 µM protein, 10 µM inhibitor; average of 3 experiments, each in duplicate.

T2 sequence (P07332 561-822 limits assumed): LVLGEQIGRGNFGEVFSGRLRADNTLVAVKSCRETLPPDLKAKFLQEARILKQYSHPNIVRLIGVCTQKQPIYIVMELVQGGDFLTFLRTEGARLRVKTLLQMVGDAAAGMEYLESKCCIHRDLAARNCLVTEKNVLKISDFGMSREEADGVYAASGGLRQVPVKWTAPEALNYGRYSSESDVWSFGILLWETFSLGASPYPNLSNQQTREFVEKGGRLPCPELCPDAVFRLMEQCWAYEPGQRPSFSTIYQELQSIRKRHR
SRC Catalytic Domain, sequence (P12931 270-523 limits assumed): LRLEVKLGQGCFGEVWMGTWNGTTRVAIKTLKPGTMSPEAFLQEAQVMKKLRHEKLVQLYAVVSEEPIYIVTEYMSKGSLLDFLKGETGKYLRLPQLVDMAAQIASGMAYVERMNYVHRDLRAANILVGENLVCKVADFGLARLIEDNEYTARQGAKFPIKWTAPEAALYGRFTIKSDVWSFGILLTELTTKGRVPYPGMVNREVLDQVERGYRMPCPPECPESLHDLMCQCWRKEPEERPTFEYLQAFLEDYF
T7 sequence (O96017 220-486 limits assumed): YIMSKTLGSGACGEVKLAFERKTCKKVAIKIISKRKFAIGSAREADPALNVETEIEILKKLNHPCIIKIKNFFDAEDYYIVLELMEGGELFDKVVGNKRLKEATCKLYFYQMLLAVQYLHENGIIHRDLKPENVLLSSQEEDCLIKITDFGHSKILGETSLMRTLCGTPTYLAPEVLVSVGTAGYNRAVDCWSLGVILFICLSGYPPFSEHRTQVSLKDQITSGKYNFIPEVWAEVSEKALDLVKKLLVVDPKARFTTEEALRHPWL
T3 sequence (Q9P286 449-700 limits assumed): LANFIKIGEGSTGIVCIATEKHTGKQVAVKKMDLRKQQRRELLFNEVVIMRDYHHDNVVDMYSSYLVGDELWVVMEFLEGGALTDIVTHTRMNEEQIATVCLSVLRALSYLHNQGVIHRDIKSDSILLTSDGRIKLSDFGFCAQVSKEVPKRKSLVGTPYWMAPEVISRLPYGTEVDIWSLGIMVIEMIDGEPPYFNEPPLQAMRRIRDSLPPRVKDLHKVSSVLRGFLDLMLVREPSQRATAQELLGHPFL
T8 sequence (O96013 321-572 limits assumed): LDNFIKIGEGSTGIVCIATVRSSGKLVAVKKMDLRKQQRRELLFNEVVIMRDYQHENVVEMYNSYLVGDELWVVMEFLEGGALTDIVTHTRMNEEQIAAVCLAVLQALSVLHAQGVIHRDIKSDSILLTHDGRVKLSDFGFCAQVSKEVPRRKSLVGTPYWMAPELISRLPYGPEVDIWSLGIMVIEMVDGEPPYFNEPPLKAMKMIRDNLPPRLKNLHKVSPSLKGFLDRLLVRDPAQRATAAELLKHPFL
T6 sequence (Q9Y243 122-479): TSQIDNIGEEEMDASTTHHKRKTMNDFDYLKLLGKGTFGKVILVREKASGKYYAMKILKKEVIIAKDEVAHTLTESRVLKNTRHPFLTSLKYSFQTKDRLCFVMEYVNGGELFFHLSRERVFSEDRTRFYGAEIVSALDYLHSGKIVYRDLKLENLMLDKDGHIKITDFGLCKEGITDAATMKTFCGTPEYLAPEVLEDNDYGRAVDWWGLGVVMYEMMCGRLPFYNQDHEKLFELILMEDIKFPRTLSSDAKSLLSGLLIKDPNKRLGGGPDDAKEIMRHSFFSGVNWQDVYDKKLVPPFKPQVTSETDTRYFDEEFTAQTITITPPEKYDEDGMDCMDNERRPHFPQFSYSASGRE

Take `O=C(Nc1cccc(Nc2nccc(Nc3cccc(C(F)(F)F)c3)n2)c1)C1CC1` [Aurora Kinase Inhibitor III]: the “Melting temperature (Tm) shift” value in assay [1] came out at 1.1 degrees Celcius; at FES Catalytic Domain it was 0.2 degrees Celcius; at PAK7 Catalytic Domain, 0.0 degrees Celcius; at CDK2 + Cyclin A it was 0.2 degrees Celcius; at SRC Catalytic Domain, 0.2 degrees Celcius; in assay [2], 0.4 degrees Celcius. The “Melting temperature (Tm) shift” value on AKT3 Catalytic Domain was found to be 0.1 degrees Celcius; on CHK2 Catalytic Domain, 0.4 degrees Celcius; in [3], 0.0 degrees Celcius; at PAK4 Catalytic Domain it was 0.8 degrees Celcius; on FAK2 Catalytic Domain it was 0.2 degrees Celcius; on STK3 Catalytic Domain it was 0.1 degrees Celcius. For the same compound, the “Melting temperature (Tm) shift” value on DMPK Catalytic Domain is 0.9 degrees Celcius; at FES Catalytic Domain+SH2, 0.3 degrees Celcius.

Turning to `O=C1NC(=O)C(=Cc2ccc(-c3ccc(F)cc3O)o2)S1` [PI 3-Kγ/CKII Inhibitor], the “Melting temperature (Tm) shift” value in assay [1] turned out to be 1.3 degrees Celcius; at CDK2 + Cyclin A, 0.2 degrees Celcius; at SRC Catalytic Domain, 0.0 degrees Celcius; in assay [2], 0.5 degrees Celcius; on CHK2 Catalytic Domain, 2.5 degrees Celcius; in assay [3], 0.1 degrees Celcius. The “Melting temperature (Tm) shift” value on PAK4 Catalytic Domain was 0.9 degrees Celcius; on FAK2 Catalytic Domain it was 0.1 degrees Celcius; on STK3 Catalytic Domain it was 0.3 degrees Celcius; on DMPK Catalytic Domain, 0.3 degrees Celcius; at FES Catalytic Domain+SH2, 0.5 degrees Celcius; on CDK2 + Cyclin E, 0.2 degrees Celcius.

With `COc1cc2ncnc(Nc3ccc(NC(=O)c4ccccc4)cc3)c2cc1OC` [Aurora Kinase Inhibitor II], the “Melting temperature (Tm) shift” value in [1] came to 0.1 degrees Celcius; at FES Catalytic Domain it was 0.1 degrees Celcius; at CDK2 + Cyclin A, 0.1 degrees Celcius; at SRC Catalytic Domain, 0.7 degrees Celcius; in assay [2] it was 0.4 degrees Celcius; at AKT3 Catalytic Domain, 0.1 degrees Celcius. In addition, the “Melting temperature (Tm) shift” value on CHK2 Catalytic Domain stood at 7.0 degrees Celcius; in assay [3] it was 0.4 degrees Celcius; at FAK2 Catalytic Domain, 0.3 degrees Celcius; at STK3 Catalytic Domain, 0.9 degrees Celcius; on DMPK Catalytic Domain, 0.1 degrees Celcius; on FES Catalytic Domain+SH2 it was 0.2 degrees Celcius.

In the case of `CCN(CC)CCNC(=O)c1c(C)[nH]c(/C=C2\C(=O)Nc3ccc(Cl)cc32)c1C` [SU11652], the “Melting temperature (Tm) shift” value in assay [1] stood at 2.0 degrees Celcius; on FES Catalytic Domain it was 2.8 degrees Celcius; at CDK2 + Cyclin A, 0.6 degrees Celcius; at SRC Catalytic Domain, 1.2 degrees Celcius; in assay [2], 3.8 degrees Celcius; at CHK2 Catalytic Domain, 4.8 degrees Celcius. For the same compound, the “Melting temperature (Tm) shift” value in assay [3] is 0.5 degrees Celcius; on PAK4 Catalytic Domain, 2.8 degrees Celcius; on FAK2 Catalytic Domain, 1.3 degrees Celcius; on DMPK Catalytic Domain, 1.9 degrees Celcius; at FES Catalytic Domain+SH2, 0.9 degrees Celcius; at CDK2 + Cyclin E, 0.5 degrees Celcius.

On to `Cc1cc(Nc2nc(-c3ccccc3)nc3ccccc23)n[nH]1` [GSK-3 Inhibitor XIII], for which the “Melting temperature (Tm) shift” value was found to be 0.8 degrees Celcius in assay [1]; 1.0 degrees Celcius on FES Catalytic Domain; 2.0 degrees Celcius on PAK7 Catalytic Domain; 0.3 degrees Celcius on CDK2 + Cyclin A; 1.3 degrees Celcius on SRC Catalytic Domain; 0.9 degrees Celcius in assay [2]. The “Melting temperature (Tm) shift” value on AKT3 Catalytic Domain amounted to 0.2 degrees Celcius; on CHK2 Catalytic Domain it was 1.9 degrees Celcius; in [3] it was 1.6 degrees Celcius; at PAK4 Catalytic Domain, 3.0 degrees Celcius; on FAK2 Catalytic Domain, 0.8 degrees Celcius; on STK3 Catalytic Domain, 3.7 degrees Celcius. For the same compound, the “Melting temperature (Tm) shift” value at DMPK Catalytic Domain is recorded as 0.5 degrees Celcius; on FES Catalytic Domain+SH2, 0.2 degrees Celcius.

On to `O=C1NC(=O)C(c2cn(CCCn3ccnc3)c3ccccc23)=C1Nc1ccccc1` [PKCb Inhibitor], for which the “Melting temperature (Tm) shift” value amounted to 0.4 degrees Celcius on FES Catalytic Domain; 0.0 degrees Celcius at PAK7 Catalytic Domain; 0.5 degrees Celcius on CDK2 + Cyclin A; 0.1 degrees Celcius at SRC Catalytic Domain; 1.7 degrees Celcius in assay [2]; 2.0 degrees Celcius on CHK2 Catalytic Domain. The “Melting temperature (Tm) shift” value at STK3 Catalytic Domain was determined as 0.3 degrees Celcius; on DMPK Catalytic Domain, 1.6 degrees Celcius; at CDK2 + Cyclin E it was 0.0 degrees Celcius.

For the compound `COc1cc2ncnc(Nc3ccc(Oc4ccccc4)cc3)c2cc1OC` [Src Kinase Inhibitor I], the “Melting temperature (Tm) shift” value at FES Catalytic Domain came out at 0.1 degrees Celcius; on PAK7 Catalytic Domain, 0.0 degrees Celcius; at CDK2 + Cyclin A it was 0.0 degrees Celcius; at SRC Catalytic Domain, 2.1 degrees Celcius; in assay [2] it was 0.1 degrees Celcius; at CHK2 Catalytic Domain, 3.0 degrees Celcius. Further, the “Melting temperature (Tm) shift” value in [3] is reported as 1.6 degrees Celcius; at FAK2 Catalytic Domain, 0.6 degrees Celcius; on STK3 Catalytic Domain, 0.3 degrees Celcius; at DMPK Catalytic Domain it was 0.7 degrees Celcius; at FES Catalytic Domain+SH2, 0.1 degrees Celcius; at CDK2 + Cyclin E it was 0.2 degrees Celcius.
